From patent US9428445B2, “Amine compounds and their use as zero or low VOC neutralizers” (ANGUS Chemical Company, priority 2012, dated 2016)
Structures can show the parent of a compound that is named as a salt. Where two headings read alike, the source gives them in different places.

How the values were obtained:
Assay type in all cases: physicochemical
[1] = VOC determination per CARB Method 310 (vapor pressure, GC test)
Method: Zero VOC can be defined in one of three ways according to California Air Resources Board (CARB) Method 310 for VOC determination: the vapor pressure can be below 0.1 mm Hg at 20° C., the boiling point can be above 216° C., or the compound must pass a gas chromatograph test (EPA Method 18, 8240B, 8260B,
(§1) Thus, this material can be classified as a zero VOC using any of the three methods outlined in CARB Method 310.

[2] = Neutral equivalent by titration
Method: (§2) Also using titration, the neutral equivalent is determined to be 168, which matches the molecule's molecular weight. However, upon inclusion into a paint formulation, slightly less (2%) of this molecule is needed to regulate pH than a control compound (2-amino-2-ethyl-1,3-propanediol (AEPD)) with a measured neutralization equivalent of 124. Thus, the second pKa contributes to pH regulation and contributes to the value of the compound as a neutralizer in paint formulations.

[3] = Acid dissociation constants by standard titration method; settings: read-out: acid dissociation constant (pKa)
Method: as §2

[4] = Thermal analysis (TGA)
From the text: as §1

vapor pressure [1]	VOC classification ([1]; any of the three methods outlined in CARB Method 310)	elution on the GC ([1]; cannot be vaporized, GC testing methods for CARB compliance)	neutral equivalent / neutralization equivalent [2]	pKa ([3]; primary amine)	pKa ([3]; sodium carboxylate)	boiling point [4]	decomposition temperature [4] [°C]	Structure (SMILES)
no discernable vapor pressure	zero VOC	does not elute	168	9.9	6.1	no boiling point	> 275	CC(C)(N)CNCC(=O)O [Example 1, N-[2-(amino)-2-methylpropyl]-glycine (Sodium Salt)]
–	–	–	124	–	–	–	–	CCC(N)(CO)CO [AEPD, 2-amino-2-ethyl-1,3-propanediol, reference compound]
